“Also recorded” adds a separate entry of the source. Read-outs that look alike come from different tables or passages of the source.
Key:
Type in all cases: cell-based
[1] = system: colorectal cancer cell line HCT116; assay: cells
Protocol: (§1) To confirm the in vitro growth inhibitory efficacy of the samples prepared in Examples 1 to 28 against human lung cancer and colorectal cancer cell lines, the experiments were performed as follows by applying the method described in the literature (Lee S K et al ([…]) Chem Biol Interact 115:215-28). A human lung cancer cell line A549 and a colorectal cancer cell line HCT116 were acquired from the American Type Culture Collection (ATCC, Manassas, Va., USA) and used.
(§2) A549, HCT116 cells were subcultured once or twice weekly under conditions of 37° C. and 5% CO2 using Roswell Park Memorial Institute (RPMI) Medium 1640 (RPMI 1640) containing 10% heat-inactivated Fetal Bovine Serum (FBS), 100 units/mL penicillin, 100 μg/mL streptomycin, and 250 ng/mL amphotericin B. All cells were thawed from liquid nitrogen, subcultured three times or more, and then used in the experiment.
(§3) The effects of the compounds obtained in Examples 1 to 28 on cell growth were measured by a sulforhodamine B (SRB) method (Lee et al (1998) Chem Biol Interact 115: 215-28).
(§4) Specifically, the human lung cancer and colon cancer cell lines used in the present invention were subcultured in a RPMI medium containing 10% FBS, 1% PSF, and the like, 10 μl of a sample dissolved in 10% DMSO and 190 μl (5×10^4 cells/ml) of the cell suspension were placed in each well of a 96-well plate. 190 μl of the cell suspension was placed in at least 16 wells, cultured for 30 minutes, and used as a negative control (zero-day control) before the experiment. The cultured cells were fixed with 10% trichloroacetic acid (TCA) and then stained with an SRB solution, the staining solution was dissolved with 10 mM Tris-base, and absorbance was measured at 515 nm. Using the cell culture in 10% DMSO as a control, cell viability according to the treatment with each test sample was measured using the following Equation 1. % Cell viability=(OD(sample)−OD(0-day))/(OD(10% DMSO)−OD(0-day))×100 [Equation 1]
(§5) When the control in which the sample was not treated was defined as 100%, the value of the sample treatment group was shown as a percentage with respect to the control, and each test sample treatment was determined by the mean value±SEM of the duplicate or triplicate test. The IC50 value is the concentration of the test sample for 50% viability.

[2] = system: human lung cancer cell line A549; assay: cells
Protocol: as §1, §2, §3, §4, §5

[3] = system: human lung cancer and colorectal cancer cell lines; assay: In vitro growth inhibition (SRB), summary over both cell lines; details: compared with control compound etoposide
Protocol: as §1, §2, §3, §4, §5

[4] = Homo sapiens, HCT-116, read-out: HCT116-LC50, Table 2, SRB, concentration for 50% viability
[5] = Homo sapiens, HCT-116, read-out: HCT116-LC50, Table 3, SRB, concentration for 50% viability
[6] = Homo sapiens, A549, read-out: A549-LC50, Table 2, SRB, concentration for 50% viability
[7] = Homo sapiens, A549, read-out: A549-LC50, Table 3, SRB, concentration for 50% viability
[8] = Homo sapiens, HCT-116, read-out: HCT116-LC50
[9] = Homo sapiens, A549, read-out: A549-LC50

Molecule COc1cc([C@@H]2c3cc4c(cc3[C@@H](O[C@@H]3O[C@@H]5CO[C@@H](C)O[C@H]5[C@H](O)[C@H]3O)[C@H]3COC(=O)[C@H]23)OCO4)cc(OC)c1O [Etoposide, reference compound] has a CC50 [1, 4] of 900 nM, a CC50 [1, 5] of 610 nM and a CC50 [2, 6] of 420 nM. The CC50 [2, 7] was 710 nM.

Molecule O=C(NCCSSCCNC(=O)/C(Cc1ccc(O)c(Br)c1)=N/O)/C(Cc1ccc(O)c(Br)c1)=N/O [Psammaplin A] has a CC50 ([1]; Table 2, SRB, concentration for 50% viability, read-out: HCT116-LC50) of 610 nM, a CC50 ([1]; Table 3, SRB, concentration for 50% viability, read-out: HCT116-LC50) of 610 nM and a CC50 ([2]; Table 2, SRB, concentration for 50% viability, read-out: A549-LC50) of 1760 nM. The CC50 ([2]; Table 3, SRB, concentration for 50% viability, read-out: A549-LC50) was 1760 nM.

In the case of O=C(NCC[Se][Se]CCNC(=O)/C(Cc1ccc(O)c(Br)c1)=N/O)/C(Cc1ccc(O)c(Br)c1)=N/O [SSM-1, (2E,2′E)-N,N′-(diselanediylbis(ethane-2,1-diyl))bis(3-(3-bromo-4-hydroxyphenyl)-2-(hydroxyimino)propanamide)], the CC50 [1, 4] is reported as 10 nM, the CC50 [2, 6] is reported as 30 nM and the “cancer cell growth inhibitory activity compared to etoposide” value [3] is reported as “higher inhibitory activity than a control compound etoposide; also recorded: excellent cancer cell growth inhibitory potential even compared to etoposide”.

Molecule O=C(NCC[Se][Se]CCNC(=O)/C(Cc1ccc(F)cc1)=N/O)/C(Cc1ccc(F)cc1)=N/O [SSM-5, (2E,2′E)-N,N′-(diselanediylbis(ethane-2,1-diyl))bis(3-(4-fluorophenyl)-2-(hydroxyimino)propanamide)] has a CC50 [1, 4] of 110 nM and a CC50 [2, 6] of 100 nM.

O=C(NCC[Se][Se]CCNC(=O)/C(Cc1ccc(Cl)cc1)=N/O)/C(Cc1ccc(Cl)cc1)=N/O [SSM-6, (2E,2′E)-N,N′-(diselanediylbis(ethane-2,1-diyl))bis(3-(4-chlorophenyl)-2-(hydroxyimino)propanamide)] gave a CC50 [1, 8] of 280 nM and a CC50 [2, 9] of 250 nM.

In the case of O=C(NCC[Se][Se]CCNC(=O)/C(Cc1ccc(Br)cc1)=N/O)/C(Cc1ccc(Br)cc1)=N/O [SSM-7, (2E,2′E)-N,N′-(diselanediylbis(ethane-2,1-diyl))bis(3-(4-bromophenyl)-2-(hydroxyimino)propanamide)], the CC50 [1, 4] is reported as 300 nM and the CC50 [2, 6] is reported as 320 nM.

O=C(NCC[Se][Se]CCNC(=O)/C(Cc1ccc(F)c(F)c1)=N/O)/C(Cc1ccc(F)c(F)c1)=N/O [SSM-8, (2E,2′E)-N,N′-(diselanediylbis(ethane-2,1-diyl))bis(3-(3,4-difluorophenyl)-2-(hydroxyimino)propanamide)] gave a CC50 [1, 8] of 190 nM and a CC50 [2, 9] of 200 nM.

Molecule O=C(NCC[Se][Se]CCNC(=O)/C(Cc1ccc(Cl)c(Cl)c1)=N/O)/C(Cc1ccc(Cl)c(Cl)c1)=N/O [SSM-9, (2E,2′E)-N,N′-(diselanediylbis(ethane-2,1-diyl))bis(3-(3,4-dichlorophenyl)-2-(hydroxyimino)propanamide)] has a CC50 [1, 8] of 520 nM and a CC50 [2, 9] of 280 nM.

Molecule O=C(NCC[Se][Se]CCNC(=O)/C(Cc1ccc(OCc2ccccc2)cc1)=N/O)/C(Cc1ccc(OCc2ccccc2)cc1)=N/O [SSM-11, (2E,2′E)-N,N′-(diselanediylbis(ethane-2,1-diyl))bis(3-(4-(benzyloxy)phenyl)-2-(hydroxyimino)propanamide)] has a CC50 [1, 4] of 100 nM and a CC50 [2, 6] of 140 nM.

With CC(C)(C)c1ccc(C/C(=N\O)C(=O)NCC[Se][Se]CCNC(=O)/C(Cc2ccc(C(C)(C)C)cc2)=N/O)cc1 [SSM-13, (2E,2′E)-N,N′-(diselanediylbis(ethane-2,1-diyl))bis(3-(4-(tert-butyl)phenyl)-2-(hydroxyimino)propanamide)] the CC50 [1, 8] was 130 nM and the CC50 [2, 9] was 100 nM.

O=C(NCC[Se][Se]CCNC(=O)/C(Cc1ccc2ccccc2c1)=N/O)/C(Cc1ccc2ccccc2c1)=N/O [SSM-14, (2E,2′E)-N,N′-(diselanediylbis(ethane-2,1-diyl))bis(2-(hydroxyimino)-3-(naphthalen-2-yl)propanamide)] was tested, and the CC50 [1, 4] was 120 nM and the CC50 [2, 6] was 380 nM.

In the case of O=C(NCC[Se]Sc1ccccc1)/C(Cc1ccc(O)c(Br)c1)=N/O [SSM-15, (E)-3-(3-bromo-4-hydroxyphenyl)-2-(hydroxyimino)-N-(2-((phenylthio)selanyl)ethyl)propanamide], the CC50 [1, 5] is reported as 10 nM and the CC50 [2, 7] is reported as 100 nM.

For O=C(NCC[Se]Sc1ccccc1)/C(Cc1ccc(O)c(Cl)c1)=N/O [SSM-16, (E)-3-(3-chloro-4-hydroxyphenyl)-2-(hydroxyimino)-N-(2-((phenylthio)selanyl)ethyl)propanamide], the CC50 [1, 5] was 90 nM and the CC50 [2, 7] was 110 nM.

In the case of O=C(NCC[Se]Sc1ccccc1)/C(Cc1ccc(O)c(F)c1)=N/O [SSM-17, (E)-3-(3-fluoro-4-hydroxyphenyl)-2-(hydroxyimino)-N-(2-((phenylthio)selanyl)ethyl)propanamide], the CC50 [1, 5] is reported as 200 nM and the CC50 [2, 7] is reported as 290 nM.

O=C(NCC[Se]Sc1ccccc1)/C(Cc1ccccc1)=N/O [SSM-18, (E)-2-(hydroxyimino)-3-phenyl-N-(2-((phenylthio)selanyl)ethyl)propanamide] showed a CC50 [1, 5] of 130 nM and a CC50 [2, 7] of 280 nM.

Work on O=C(NCC[Se]Sc1ccccc1)/C(Cc1ccc(F)cc1)=N/O [SSM-19, (E)-3-(4-fluorophenyl)-2-(hydroxyimino)-N-(2-((phenylthio)selanyl)ethyl)propanamide] yielded a CC50 [1, 5] of 330 nM and a CC50 [2, 7] of 490 nM.

Work on O=C(NCC[Se]Sc1ccccc1)/C(Cc1ccc(Cl)cc1)=N/O [SSM-20, (E)-3-(4-chlorophenyl)-2-(hydroxyimino)-N-(2-((phenylthio)selanyl)ethyl)propanamide] yielded a CC50 [1, 8] of 330 nM and a CC50 [2, 9] of 490 nM.

O=C(NCC[Se]Sc1ccccc1)/C(Cc1ccc(Br)cc1)=N/O [SSM-21, (E)-3-(4-bromophenyl)-2-(hydroxyimino)-N-(2-((phenylthio)selanyl)ethyl)propanamide] gave a CC50 [1, 5] of 180 nM and a CC50 [2, 7] of 510 nM.

With O=C(NCC[Se]Sc1ccccc1)/C(Cc1ccc(F)c(F)c1)=N/O [SSM-22, (E)-3-(3,4-difluorophenyl)-2-(hydroxyimino)-N-(2-((phenylthio)selanyl)ethyl)propanamide] the CC50 [1, 8] was 310 nM and the CC50 [2, 9] was 480 nM.

Molecule O=C(NCC[Se]Sc1ccccc1)/C(Cc1ccc(Cl)c(Cl)c1)=N/O [SSM-23, (E)-3-(3,4-dichlorophenyl)-2-(hydroxyimino)-N-(2-((phenylthio)selanyl)ethyl)propanamide] has a CC50 [1, 8] of 50 nM and a CC50 [2, 9] of 280 nM.

With CCOc1ccc(C/C(=N\O)C(=O)NCC[Se]Sc2ccccc2)cc1 [SSM-24, (E)-3-(4-ethoxyphenyl)-2-(hydroxyimino)-N-(2-((phenylthio)selanyl)ethyl)propanamide] the CC50 [1, 5] was 130 nM and the CC50 [2, 7] was 330 nM.

For O=C(NCC[Se]Sc1ccccc1)/C(Cc1ccc(OCc2ccccc2)cc1)=N/O [SSM-25, (E)-3-(4-(benzyloxy)phenyl)-2-(hydroxyimino)-N-(2-((phenylthio)selanyl)ethyl)propanamide], the CC50 [1, 5] was 80 nM and the CC50 [2, 7] was 180 nM.

O=C(NCC[Se]Sc1ccccc1)/C(Cc1ccc([N+](=O)[O-])cc1)=N/O [SSM-26, (E)-2-(hydroxyimino)-3-(4-nitrophenyl)-N-(2-((phenylthio)selanyl)ethyl)propanamide] was tested, and the CC50 [1, 8] was 120 nM and the CC50 [2, 9] was 120 nM.

O=C(NCC[Se]Sc1ccccc1)/C(Cc1ccc2ccccc2c1)=N/O [SSM-28, (E)-2-(hydroxyimino)-3-(naphthalen-2-yl)-N-(2-((phenylthio)selanyl)ethyl)propanamide] showed a CC50 [1, 5] of 20 nM and a CC50 [2, 7] of 120 nM.

From patent US11629123B2, “Selenopsammaplin A and derivative thereof, preparation method therefor, and composition for preventing and treating cancer, containing same as active ingredients” (priority 2017, dated 2023)
